Reference: PubChem BioAssay (NCI)
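How tested: cells in 96-well plates exposed to compound for 48 hours at five concentrations. GI50 marks 50% less growth. TGI marks complete inhibition of growth.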

What was measured:
Test in all cases: NCI anticancer screen, dose series, 48 h
[1] = test system: OVCAR-8 ovarian
[2] = test system: ACHN renal
[3] = test system: NCI-H522 lung
[4] = test system: OVCAR-5 ovarian
[5] = test system: HL-60(TB) leukemia
[6] = test system: CCRF-CEM leukemia
[7] = test system: CAKI-1 renal
[8] = test system: SK-OV-3 ovarian
[9] = test system: UACC-62 melanoma
[10] = test system: SK-MEL-28 melanoma
[11] = test system: SF-539 CNS
[12] = test system: K-562 leukemia
[13] = test system: SW-620 colon
[14] = test system: EKVX NSCLC
[15] = test system: RPMI-8226 leukemia
[16] = test system: KM12 colon
[17] = test system: MCF7 breast
[18] = test system: T-47D breast
[19] = test system: SK-MEL-5 melanoma
[20] = test system: SF-268 CNS
[21] = test system: MDA-MB-231 breast
[22] = test system: SNB-19 CNS
[23] = test system: NCI-H460 lung
[24] = test system: A549 NSCLC
[25] = test system: M14 melanoma
[26] = test system: DU-145 prostate
[27] = test system: OVCAR-3 ovarian
[28] = test system: HCT-116 colon
[29] = test system: BT-549 breast
[30] = test system: UACC-257 melanoma
[31] = test system: MDA-MB-435
[32] = test system: MOLT-4 leukemia
[33] = test system: NCI-H226 lung
[34] = test system: SF-295 CNS
[35] = test system: UO-31 renal
[36] = test system: HS 578T breast
[37] = test system: A498 renal
[38] = test system: U251 CNS
[39] = test system: SN12C renal
[40] = test system: SK-MEL-2 melanoma
[41] = test system: COLO 205 colon
[42] = test system: HCT-15 colon
[43] = test system: RXF 393 renal
[44] = test system: TK-10 renal
[45] = test system: HT29 colon
[46] = test system: OVCAR-4 ovarian
[47] = test system: NCI-H23 lung
[48] = test system: HCC-2998 colon
[49] = test system: 786-0 renal
[50] = test system: HOP-62 NSCLC
[51] = test system: SR leukemia
[52] = test system: SNB-75 CNS
[53] = test system: MALME-3M melanoma
[54] = test system: IGROV1 ovarian
[55] = test system: NCI/ADR-RES ovarian
[56] = test system: LOX IMVI melanoma
[57] = test system: HOP-92 NSCLC
[58] = test system: PC-3 prostate

## CCCCNC(=O)Oc1ccc(/C(=C(/C)Cc2ccc(OC)cc2)c2ccc(OCCN3CCCC3)cc2)cc1
[1]
  GI50: 2.04 µM
  TGI: 4.38 µM
[2]
  GI50: 1.79 µM
  TGI: 3.32 µM
[3]
  GI50: 2.02 µM
  TGI: 4.05 µM
[4]
  GI50: 3.6 µM
  TGI: 12.7 µM
[5]
  GI50: 1.64 µM
  TGI: 3.82 µM
[6]
  GI50: 2.57 µM
  TGI: 7.41 µM
[7]
  GI50: 1.63 µM
  TGI: 3.5 µM
[8]
  GI50: 6.14 µM
  TGI: 20.4 µM
[9]
  GI50: 1.94 µM
  TGI: 3.59 µM
[10]
  GI50: 1.83 µM
  TGI: 3.57 µM
[11]
  GI50: 1.75 µM
  TGI: 3.32 µM
[12]
  GI50: 1.57 µM
  TGI: 5.13 µM
[13]
  GI50: 1.78 µM
  TGI: 3.36 µM
[14]
  GI50: 1.86 µM
  TGI: 5.5 µM
[15]
  GI50: 2.2 µM
  TGI: 4.85 µM
[16]
  GI50: 2.03 µM
  TGI: 4.49 µM
[17]
  GI50: 0.655 µM
  TGI: 2.51 µM
[18]
  GI50: 1.39 µM
  TGI: 4.37 µM
[19]
  GI50: 1.66 µM
  TGI: 3.17 µM
[20]
  GI50: 1.98 µM
  TGI: 4.4 µM
[21]
  GI50: 1.87 µM
  TGI: 3.49 µM
[22]
  GI50: 3.47 µM
  TGI: 11.4 µM
[23]
  GI50: 1.81 µM
  TGI: 3.34 µM
[24]
  GI50: 1.95 µM
  TGI: 3.8 µM
[25]
  GI50: 1.81 µM
  TGI: 3.48 µM
[26]
  GI50: 2.29 µM
  TGI: 5.44 µM
[27]
  GI50: 1.79 µM
  TGI: 3.47 µM
[28]
  GI50: 1.55 µM
  TGI: 2.98 µM
[29]
  GI50: 1.52 µM
  TGI: 2.98 µM
[30]
  GI50: 1.88 µM
  TGI: 3.44 µM
[31]
  GI50: 1.63 µM
  TGI: 3.1 µM
[32]
  GI50: 1.98 µM
  TGI: 7.72 µM
[33]
  GI50: 3.03 µM
  TGI: 11.4 µM
[34]
  GI50: 1.65 µM
  TGI: 3.14 µM
[35]
  GI50: 1.65 µM
  TGI: 3.22 µM
[36]
  GI50: 2.11 µM
  TGI: 4.81 µM
[37]
  GI50: 4.7 µM
  TGI: 18.5 µM
[38]
  GI50: 1.82 µM
  TGI: 3.31 µM
[39]
  GI50: 1.77 µM
  TGI: 3.27 µM
[40]
  GI50: 2.13 µM
  TGI: 4.23 µM
[41]
  GI50: 1.83 µM
  TGI: 3.57 µM
[42]
  GI50: 1.5 µM
  TGI: 3.13 µM
[43]
  GI50: 2.07 µM
  TGI: 3.79 µM
[44]
  GI50: 4.31 µM
  TGI: 17.8 µM
[45]
  GI50: 1.89 µM
  TGI: 3.85 µM
[46]
  GI50: 1.83 µM
  TGI: 4.26 µM
[47]
  GI50: 2.26 µM
  TGI: 5.67 µM
[48]
  GI50: 1.83 µM
  TGI: 3.48 µM
[49]
  GI50: 1.51 µM
  TGI: 2.91 µM
[50]
  GI50: 2.65 µM
  TGI: 11.3 µM
[51]
  GI50: 1.86 µM
  TGI: 5.44 µM
[52]
  GI50: 1.56 µM
  TGI: 4.5 µM
[53]
  GI50: 1.7 µM
  TGI: 3.28 µM
[54]
  GI50: 2.11 µM
  TGI: 4.52 µM
[55]
  GI50: 3.11 µM
  TGI: 11.6 µM
[56]
  GI50: 1.67 µM
  TGI: 3.2 µM

## CC(=O)C1=C(C)N(C)C2(O)C=CC(=O)C3=C(O)c4ccccc4C(=O)C312 (stereo not drawn)
[1]
  GI50: 24 µM
  TGI: > 100 µM
[2]
  GI50: 10.8 µM
  TGI: 28.8 µM
[3]
  GI50: 23.8 µM
  TGI: > 100 µM
[4]
  GI50: 22.1 µM
  TGI: 66.1 µM
[5]
  GI50: > 100 µM
  TGI: > 100 µM
[6]
  GI50: 1.92 µM
  TGI: > 100 µM
[7]
  GI50: 3.52 µM
  TGI: 9.65 µM
[8]
  GI50: 6.9 µM
  TGI: 32.4 µM
[9]
  GI50: 3.89 µM
  TGI: 14 µM
[10]
  GI50: 19.4 µM
  TGI: 47.3 µM
[11]
  GI50: 2.76 µM
  TGI: 6.55 µM
[57]
  GI50: 2.61 µM
  TGI: 8.48 µM
[12]
  GI50: 3.14 µM
  TGI: > 100 µM
[13]
  GI50: 4.41 µM
  TGI: 33.5 µM
[14]
  GI50: 15.3 µM
  TGI: 33.4 µM
[15]
  GI50: 3.02 µM
  TGI: 31.5 µM
[17]
  GI50: 12.2 µM
  TGI: 36.1 µM
[19]
  GI50: 2.51 µM
  TGI: 9.02 µM
[20]
  GI50: 9.29 µM
  TGI: 23.6 µM
[21]
  GI50: 4.96 µM
  TGI: 21.6 µM
[22]
  GI50: 2.18 µM
  TGI: 27 µM
[23]
  GI50: 10.6 µM
  TGI: 42 µM
[24]
  GI50: 23 µM
  TGI: > 100 µM
[25]
  GI50: 2.81 µM
  TGI: 7.87 µM
[26]
  GI50: 5.27 µM
  TGI: 21.8 µM
[28]
  GI50: 2.77 µM
  TGI: 7.09 µM
[29]
  GI50: 13.6 µM
  TGI: 27.9 µM
[30]
  GI50: 5.73 µM
  TGI: > 100 µM
[31]
  GI50: 2.12 µM
  TGI: 3.89 µM
[32]
  GI50: 3.53 µM
  TGI: > 100 µM
[33]
  GI50: 16 µM
  TGI: 31.9 µM
[34]
  GI50: 5.03 µM
  TGI: 19.6 µM
[35]
  GI50: 27 µM
  TGI: > 100 µM
[36]
  GI50: 7.23 µM
  TGI: 40.5 µM
[37]
  GI50: 0.0524 µM
  TGI: 15.2 µM
[38]
  GI50: 14 µM
  TGI: 31.4 µM
[39]
  GI50: 3.13 µM
  TGI: 8.81 µM
[40]
  GI50: 30.6 µM
  TGI: > 100 µM
[41]
  GI50: 13.8 µM
  TGI: 38 µM
[42]
  GI50: 5.41 µM
  TGI: 21.7 µM
[44]
  GI50: 6.72 µM
  TGI: 20.7 µM
[58]
  GI50: 3.42 µM
  TGI: 15.9 µM
[45]
  GI50: 24.1 µM
  TGI: > 100 µM
[46]
  GI50: 17.1 µM
  TGI: 34.2 µM
[47]
  GI50: 5.21 µM
  TGI: 46 µM
[48]
  GI50: 13.8 µM
  TGI: 61.8 µM
[49]
  GI50: 2.59 µM
  TGI: 7.36 µM
[50]
  GI50: 5.16 µM
  TGI: 18.4 µM
[51]
  GI50: > 100 µM
  TGI: > 100 µM
[52]
  GI50: 19.9 µM
  TGI: 43.8 µM
[53]
  GI50: 1.51 µM
  TGI: 4.01 µM
[54]
  GI50: 23.5 µM
  TGI: > 100 µM
[55]
  GI50: 5.49 µM
  TGI: > 100 µM
